{"source": "patent US20260021084A1", "about": "“METHOD OF TREATING ORGAN DISEASES OR DISORDERS WITH ASK1 INHIBITORS” (Seal Rock Therapeutics, Inc., priority 2022, published 2026)", "assay_type_in_all_cases": "in vivo", "key": {"[1]": {"assay": "Organ distribution of ASK1 inhibitor in rats after intravenous administration", "conditions": "male, Sprague-Dawley, rat, single IV 10 mg/kg", "method": "The objective of this study was to investigate organ (liver, heart, kidney, pancreas, spleen and skin) distribution of ASK1 inhibitor in male Sprague Dawley rats following a single intravenous (IV) administration at a dose of 10 mg/kg. Three rats are administered intravenously with a solution formulation of ASK1 inhibitor 2-(6-(4-cyclopropyl-4H-1,2,4-triazol-3-yl)pyridin-2-yl)-5-(morpholine-4-carbonyl)isoindolin-1-one in 5% NMP, 15% Solutol HS-15, 20% PEG-400 and 60% HpBetaCD at 10 mg/kg dose. 2-(6-(4-Cyclopropyl-4H-1,2,4-triazol-3-yl)pyridin-2-yl)-5-(morpholine-4-carbonyl)isoindolin-1-one was prepared as described in US2018/0291002 which is herein incorporated by reference in its entirety.\n(§1) Blood samples (approximately 120 μL) were collected under light isoflurane anesthesia from retro orbital plexus from a set of three rats at 1 h post IV injection. Immediately after blood collection, plasma was harvested by centrifugation at 4000 rpm, 10 min at […] and samples were stored at −70±10° C. until bioanalysis. Animals were sacrificed immediately followed by abdominal vena-cava cut open and whole body was perfused from heart using 10 mL of normal saline. After isolation, tissue samples were rinsed three times in ice cold normal saline (for 5-10 seconds/rinsed using ˜5-10 mL normal saline in disposable petri dish for each rinse, dried on blotting paper and weighed. Tissue (liver, heart, kidney, pancreas, spleen and skin) samples were homogenized using ice-cold phosphate buffer saline (pH−7.4). Total homogenate volume was five times the tissue weight. All homogenates were stored below −70±10° C. until bioanalysis.\n(§2) Plasma, liver, heart, kidney, pancreas, spleen, and skin samples were quantified by fit-for-purpose LC-MS/MS method."}, "[2]": {"assay": "Organ distribution of ASK1 inhibitor in rats after oral administration", "conditions": "male, Sprague-Dawley, rat, single oral 300 mg/kg", "method": "The objective of this study was to investigate organ (liver, heart, kidney) distribution of ASK1 inhibitor in male Sprague Dawley rats following a single oral (PO) administration at a dose of 300 mg/kg. Three rats are administered orally with suspension formulation of ASK1 inhibitor 2-(6-(4-cyclopropyl-4H-1,2,4-triazol-3-yl)pyridin-2-yl)-5-(morpholine-4-carbonyl)isoindolin-1-one in a formulation of 0.1% Tween 80 and 99.9% HPMC (0.5% w/v in water) at 300 mg/kg dose.\nas §1, with “PO administration.” for “IV injection.”, “kidney)” for “kidney, pancreas, spleen and skin)”\nas §2"}, "[3]": {"tested_on": "C57Bl/6 male mice", "assay": "Efficacy of intravenous ASK1 inhibitor in liver injury due to acute alcoholic hepatitis (pyrazole/LPS model), plasma ALT", "conditions": "IV 0.3 and 3 mg/kg twice (3 hours apart), plasma 24 h after LPS", "method": "The goal of the study is to evaluate whether IV administered ASK1 inhibitor can reduce liver injury due to acute alcoholic hepatitis (AH).\nSeven-day acclimated C57Bl/6 male mice were treated with pyrazole for 2-days to induce CYP2E, prior to ASK1 inhibitor and lipopolysaccharide (LPS) administration. On day 3, ASK1 inhibitor 2-(6-(4-cyclopropyl-4H-1,2,4-triazol-3-yl)pyridin-2-yl)-5-(morpholine-4-carbonyl)isoindolin-1-one was administered by IV injection via tail vein at 0.3 and 3 mg/kg or vehicle twice (3 hours apart). LPS was administered intraperitoneally 30 min after the first dose of 2-(6-(4-cyclopropyl-4H-1,2,4-triazol-3-yl)pyridin-2-yl)-5-(morpholine-4-carbonyl)isoindolin-1-one. LPS administration emulates the inflammation by gut bacteria penetrating the intestinal wall following binge drinking. 24 h after LPS administration, plasma was collected for ALT analysis to estimate reduction of liver injury following intravenous treatment with ASK1 inhibitor."}, "[4]": {"conditions": "heart / plasma, read-out: Tissue-to-plasma ratio, Heart"}, "[5]": {"conditions": "kidney / plasma, read-out: Tissue-to-plasma ratio, Kidney"}, "[6]": {"conditions": "liver / plasma, read-out: Tissue-to-plasma ratio, Liver"}}}
{"compound": "O=C(c1ccc2c(c1)CN(c1cccc(-c3nncn3C3CC3)n1)C2=O)N1CCOCC1", "note": "[2-(6-(4-cyclopropyl-4H-1,2,4-triazol-3-yl)pyridin-2-yl)-5-(morpholine-4-carbonyl)isoindolin-1-one]", "values": [{"measurement": "Kp at 1 h", "setting": "[1]; [4]", "result": 1.11}, {"measurement": "Kp at 1 h", "setting": "[1]; [5]", "result": 5.99}, {"measurement": "Kp at 1 h", "setting": "[1]; [6]", "result": 9.37}, {"measurement": "Kp at 1 h", "setting": "[1]; pancreas / plasma, read-out: Tissue-to-plasma ratio, Pancreas", "result": 0.99}, {"measurement": "Kp at 1 h", "setting": "[1]; skin / plasma, read-out: Tissue-to-plasma ratio, Skin", "result": 0.46}, {"measurement": "Kp at 1 h", "setting": "[1]; spleen / plasma, read-out: Tissue-to-plasma ratio, Spleen", "result": 0.89}, {"measurement": "Kp at 1 h", "setting": "[2]; [4]", "result": 1.13}, {"measurement": "Kp at 1 h", "setting": "[2]; [5]", "result": 7.47}, {"measurement": "Kp at 1 h", "setting": "[2]; [6]", "result": 13.8}, {"measurement": "lowered plasma ALT levels", "setting": "[3]", "result": "74-85%"}]}
